Measured values as given in PubChem BioAssay (NCI).
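Cells were grown in 96-well plates and exposed to each compound for 48 hours at five concentrations; endpoints were interpolated linearly between bracketing concentrations, or set to the highest concentration if not reached. GI50 = concentration required for 50% inhibition of growth. TGI marks complete inhibition of growth.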

Experiments:
Test in all cases: NCI-60 cell line screen, 48 h; in the data active means GI50 below about 0.43 µM; inactive means the rest
786-0 renal = system: 786-0 renal
A498 renal = system: A498 renal
A549 NSCLC = system: A549 NSCLC
ACHN renal = system: ACHN renal
BT-549 breast = system: BT-549 breast
CAKI-1 renal = system: CAKI-1 renal
CCRF-CEM leukemia = system: CCRF-CEM leukemia
COLO 205 colon = system: COLO 205 colon
DU-145 prostate = system: DU-145 prostate
EKVX NSCLC = system: EKVX NSCLC
HCC-2998 colon = system: HCC-2998 colon
HCT-116 colon = system: HCT-116 colon
HCT-15 colon = system: HCT-15 colon
HL-60(TB) leukemia = system: HL-60(TB) leukemia
HOP-62 NSCLC = system: HOP-62 NSCLC
HOP-92 NSCLC = system: HOP-92 NSCLC
HS 578T breast = system: HS 578T breast
HT29 colon = system: HT29 colon
IGROV1 ovarian = system: IGROV1 ovarian
K-562 leukemia = system: K-562 leukemia
KM12 colon = system: KM12 colon
LOX IMVI melanoma = system: LOX IMVI melanoma
M14 melanoma = system: M14 melanoma
MALME-3M melanoma = system: MALME-3M melanoma
MCF7 breast = system: MCF7 breast
MDA-MB-231 breast = system: MDA-MB-231 breast
MDA-MB-435 = system: MDA-MB-435
MOLT-4 leukemia = system: MOLT-4 leukemia
NCI-H226 lung = system: NCI-H226 lung
NCI-H23 lung = system: NCI-H23 lung
NCI-H460 lung = system: NCI-H460 lung
NCI-H522 lung = system: NCI-H522 lung
NCI/ADR-RES ovarian = system: NCI/ADR-RES ovarian
OVCAR-3 ovarian = system: OVCAR-3 ovarian
OVCAR-4 ovarian = system: OVCAR-4 ovarian
OVCAR-5 ovarian = system: OVCAR-5 ovarian
OVCAR-8 ovarian = system: OVCAR-8 ovarian
PC-3 prostate = system: PC-3 prostate
RPMI-8226 leukemia = system: RPMI-8226 leukemia
RXF 393 renal = system: RXF 393 renal
SF-268 CNS = system: SF-268 CNS
SF-295 CNS = system: SF-295 CNS
SF-539 CNS = system: SF-539 CNS
SK-MEL-2 melanoma = system: SK-MEL-2 melanoma
SK-MEL-28 melanoma = system: SK-MEL-28 melanoma
SK-MEL-5 melanoma = system: SK-MEL-5 melanoma
SK-OV-3 ovarian = system: SK-OV-3 ovarian
SN12C renal = system: SN12C renal
SNB-19 CNS = system: SNB-19 CNS
SNB-75 CNS = system: SNB-75 CNS
SR leukemia = system: SR leukemia
SW-620 colon = system: SW-620 colon
T-47D breast = system: T-47D breast
TK-10 renal = system: TK-10 renal
U251 CNS = system: U251 CNS
UACC-257 melanoma = system: UACC-257 melanoma
UACC-62 melanoma = system: UACC-62 melanoma
UO-31 renal = system: UO-31 renal

CC(=O)N1CCC(Nc2cc(C(=O)NC[C@H](O)CN3CCc4ccccc4C3)ncn2)CC1
inactive: GI50 (786-0 renal) > 100 µM | GI50 (A498 renal) > 100 µM | GI50 (A549 NSCLC) > 100 µM | GI50 (ACHN renal) > 100 µM | GI50 (BT-549 breast) > 100 µM | GI50 (CAKI-1 renal) > 100 µM | GI50 (CCRF-CEM leukemia) > 100 µM | GI50 (COLO 205 colon) > 100 µM | GI50 (DU-145 prostate) > 100 µM | GI50 (EKVX NSCLC) > 100 µM | GI50 (HCC-2998 colon) > 100 µM | GI50 (HCT-116 colon) > 100 µM | GI50 (HCT-15 colon) > 100 µM | GI50 (HL-60(TB) leukemia) > 100 µM | GI50 (HOP-62 NSCLC) > 100 µM | GI50 (HOP-92 NSCLC) 91.9 µM | GI50 (HS 578T breast) > 100 µM | GI50 (HT29 colon) > 100 µM | GI50 (IGROV1 ovarian) > 100 µM | GI50 (K-562 leukemia) > 100 µM | GI50 (KM12 colon) > 100 µM | GI50 (LOX IMVI melanoma) > 100 µM | GI50 (M14 melanoma) > 100 µM | GI50 (MALME-3M melanoma) > 100 µM | GI50 (MCF7 breast) > 100 µM | GI50 (MDA-MB-231 breast) > 100 µM | GI50 (MDA-MB-435) > 100 µM | GI50 (MOLT-4 leukemia) > 100 µM | GI50 (NCI-H226 lung) > 100 µM | GI50 (NCI-H23 lung) > 100 µM | GI50 (NCI-H460 lung) > 100 µM | GI50 (NCI-H522 lung) > 100 µM | GI50 (NCI/ADR-RES ovarian) > 100 µM | GI50 (OVCAR-3 ovarian) > 100 µM | GI50 (OVCAR-4 ovarian) > 100 µM | GI50 (OVCAR-5 ovarian) > 100 µM | GI50 (OVCAR-8 ovarian) > 100 µM | GI50 (PC-3 prostate) > 100 µM | GI50 (RPMI-8226 leukemia) > 100 µM | GI50 (RXF 393 renal) > 100 µM | GI50 (SF-268 CNS) > 100 µM | GI50 (SF-295 CNS) > 100 µM | GI50 (SF-539 CNS) > 100 µM | GI50 (SK-MEL-2 melanoma) > 100 µM | GI50 (SK-MEL-28 melanoma) > 100 µM | GI50 (SK-MEL-5 melanoma) > 100 µM | GI50 (SK-OV-3 ovarian) > 100 µM | GI50 (SN12C renal) > 100 µM | GI50 (SNB-19 CNS) > 100 µM | GI50 (SNB-75 CNS) > 100 µM | GI50 (SR leukemia) > 100 µM | GI50 (SW-620 colon) > 100 µM | GI50 (T-47D breast) > 100 µM | GI50 (TK-10 renal) > 100 µM | GI50 (U251 CNS) > 100 µM | GI50 (UACC-257 melanoma) > 100 µM | GI50 (UACC-62 melanoma) > 100 µM | GI50 (UO-31 renal) > 100 µM
> 100 µM: TGI (786-0 renal) | TGI (A498 renal) | TGI (A549 NSCLC) | TGI (ACHN renal) | TGI (BT-549 breast) | TGI (CAKI-1 renal) | TGI (CCRF-CEM leukemia) | TGI (COLO 205 colon) | TGI (DU-145 prostate) | TGI (EKVX NSCLC) | TGI (HCC-2998 colon) | TGI (HCT-116 colon) | TGI (HCT-15 colon) | TGI (HL-60(TB) leukemia) | TGI (HOP-62 NSCLC) | TGI (HOP-92 NSCLC) | TGI (HS 578T breast) | TGI (HT29 colon) | TGI (IGROV1 ovarian) | TGI (K-562 leukemia) | TGI (KM12 colon) | TGI (LOX IMVI melanoma) | TGI (M14 melanoma) | TGI (MALME-3M melanoma) | TGI (MCF7 breast) | TGI (MDA-MB-231 breast) | TGI (MDA-MB-435) | TGI (MOLT-4 leukemia) | TGI (NCI-H226 lung) | TGI (NCI-H23 lung) | TGI (NCI-H460 lung) | TGI (NCI-H522 lung) | TGI (NCI/ADR-RES ovarian) | TGI (OVCAR-3 ovarian) | TGI (OVCAR-4 ovarian) | TGI (OVCAR-5 ovarian) | TGI (OVCAR-8 ovarian) | TGI (PC-3 prostate) | TGI (RPMI-8226 leukemia) | TGI (RXF 393 renal) | TGI (SF-268 CNS) | TGI (SF-295 CNS) | TGI (SF-539 CNS) | TGI (SK-MEL-2 melanoma) | TGI (SK-MEL-28 melanoma) | TGI (SK-MEL-5 melanoma) | TGI (SK-OV-3 ovarian) | TGI (SN12C renal) | TGI (SNB-19 CNS) | TGI (SNB-75 CNS) | TGI (SR leukemia) | TGI (SW-620 colon) | TGI (T-47D breast) | TGI (TK-10 renal) | TGI (U251 CNS) | TGI (UACC-257 melanoma) | TGI (UACC-62 melanoma) | TGI (UO-31 renal)
